According to patent US8410165B2, “Aldehyde conjugated flavonoid preparations” (Agency for Science, Technology and Research, priority 2005, dated 2013):

Tests used:
Type in all cases: biochemical
[1] = Diphenyl-picryl-hydrazyl (DPPH) scavenging activity; conditions: concentration needed to scavenge DPPH by 50%; EGCG moiety concentration for EGCG-containing samples, n = 3
Protocol: Diphenyl-picryl-hydrazyl scavenging activity: Different amounts of a sample were mixed with the chemically stable free radical 1,1-diphenyl-2-picryl-hydrazyl (DPPH) solution and absorbance at 519 nm was continuously recorded for 30 min at 25° C. using a UV-visible spectrophotometer (JASCO V-510 UV/VIS/NIR spectrometer, Japan). All analyses were run in triplicate and the results were averaged.
Diphenyl-picryl-hydrazyl scavenging activity and Superoxide anion scavenging activity: The 1,1-diphenyl-2-picryl-hydrazyl radical (DPPH) assay, which measures hydrogen atom donating activity, provides an evaluation of antioxidant activity due to free radical scavenging. DPPH, a purple-coloured stable free radical, is reduced into the yellow-coloured diphenylpicry hydrazine, as the radical is scavenged by antioxidants through donation of hydrogen. […] The DPPH scavenging activity of samples was expressed by IC50 (the concentration needed to scavenge DPPH by 50%), as shown in Table 4. […] These activities were also much higher than those of commercial antioxidants, vitamin C and dibutylhydroxytoluen (BHT).

[2] = Superoxide anion scavenging activity (xanthine/XO, NBT reduction method); conditions: concentration needed to scavenge superoxide anion by 50%; EGCG moiety concentration for EGCG-containing samples, n = 3; read-out: Superoxide radical scavenging activity IC50
Protocol: Superoxide anion scavenging activity: Superoxide anion was generated using xanthine and xanthine oxidase (XO), and measured by the nitroblue tetrazolium (NBT) reduction method. A test sample was mixed in a buffer solution (pH 7.0) containing xanthine and NBT at 25° C. Measurement began with the addition of XO. […] All analyses were run in triplicate and the results were averaged. Superoxide scavenging activity was calculated according to the following formula: […] A mixture of xanthine and XO generates superoxide anion, which reduces nitroblue tetrazolium (NBT) to give the blue chromogen formazan and increases UV absorbance at 560 nm. Compounds capable of scavenging superoxide anion, such as superoxide dismutase (SOD), inhibit NBT reduction. […] Since compounds capable of scavenging superoxide anion can also affect NBT reduction, samples were investigated for their effects on these processes. […] Evaluation of scavenging activity against DPPH and superoxide anion provided direct evidence of the free radical scavenging potential of those compounds.

Xanthine oxidase (XO) = molecular target: T1, Xanthine oxidase (XO) (Bos taurus, UniProt P80457); assay: Xanthine oxidase inhibitory activity (uric acid formation at 295 nm); conditions: for XO inhibition activity: 10 μM of samples
T1 construct: purchased Sigma-Aldrich
Protocol: Xanthine oxidase inhibitory activity: The activity of XO was measured spectrophotometrically by monitoring the formation of uric acid at 295 nm for 30 min using a UV-visible spectrometer. The assay was carried out under the same conditions as the superoxide anion assay, and the percentage activity was calculated.

Urokinase (uPA) = Urokinase (uPA) (Homo sapiens, UniProt P00749); assay: uPA inhibitory activity (SPECTROZYME UK); conditions: over a range of tested concentrations, EGCG-unit concentration (FIG. 8)
Protocol: uPA inhibitory activity: Various amounts of a sample were mixed with uPA in a buffer solution, and incubated for 15 min at 37° C. The mixture solution was added with SPECTROZYME™ and absorbance at 405 nm was recorded for 10 min using a microplate reader.

[3] = molecular target: T2, Xanthine Oxidase from buttermilk (Bos taurus, UniProt P80457); assay: Xanthine oxidase activity upon complexation with OEGCG and recovery with Triton X-100; conditions: highest OEGCG concentration
T2 construct: Xanthine Oxidase from buttermilk, Wako Chemical; purchased Wako Chemical; host or cells: buttermilk
Protocol: XO activity was measured by determining uric acid production in a UV-vis spectrophotometer at 295 nm. The increase in absorbance due to the conversion of xanthine to uric acid was followed for 3 minutes. […] Activity was measured according to the specified method for each protein. Activity for all proteins is calculated with the following equation: [formula] where ΔAbssample is the change in absorbance over time with the test compound and ΔAbscontrol is the change in absorbance over time without the test compound.

[4] = molecular target: T3, α-Amylase from Apergillus oryzae (Aspergillus oryzae, UniProt P0C1B3); assay: α-Amylase activity upon complexation with OEGCG and recovery with Triton X-100
T3 construct: α-Amylase from Apergillus oryzae, Fluka; purchased Fluka; host or cells: Aspergillus oryzae
Protocol: α-Amylase from Apergillus oryzae, Fluka. Amylase activity was assayed with an activity kit from Molecular Probes (E-11954) using a fluorescence spectrophotometer with excitation wavelength at 505 nm and emission wavelength at 512 nm. […] Fluorescence was monitored over a period of 3 minutes.
(§1) Activity was measured according to the specified method for each protein.
(§2) Activity for all proteins is calculated with the following equation:
(§3) [formula] where ΔAbssample is the change in absorbance over time with the test compound and ΔAbscontrol is the change in absorbance over time without the test compound.

[5] = molecular target: T4, Catalase from bovine liver (Bos taurus, UniProt P00432); assay: Catalase activity upon complexation with OEGCG and recovery with Triton X-100
T4 construct: Catalase from bovine liver, Sigma Chemical; purchased Sigma Chemical; host or cells: bovine liver
T4 sequence (P00432 2-527 limits assumed): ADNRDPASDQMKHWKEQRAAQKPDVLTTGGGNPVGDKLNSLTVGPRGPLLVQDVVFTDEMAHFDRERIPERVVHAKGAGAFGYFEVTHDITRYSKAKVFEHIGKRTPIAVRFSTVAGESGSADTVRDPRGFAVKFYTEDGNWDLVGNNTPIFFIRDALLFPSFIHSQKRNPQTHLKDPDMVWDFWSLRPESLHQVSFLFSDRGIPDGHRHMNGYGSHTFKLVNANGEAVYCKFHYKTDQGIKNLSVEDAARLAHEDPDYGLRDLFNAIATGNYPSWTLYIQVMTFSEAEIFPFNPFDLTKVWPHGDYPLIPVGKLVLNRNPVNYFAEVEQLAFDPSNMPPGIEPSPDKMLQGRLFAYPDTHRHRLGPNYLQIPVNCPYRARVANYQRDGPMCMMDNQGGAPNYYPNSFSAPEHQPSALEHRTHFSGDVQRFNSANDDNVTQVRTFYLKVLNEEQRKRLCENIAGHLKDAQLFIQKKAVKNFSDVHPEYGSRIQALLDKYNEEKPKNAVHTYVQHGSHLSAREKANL
Protocol: Catalase from bovine liver, Sigma Chemical. Catalase activity was measured by the disappearance of H2O2, followed at 240 nm in a UV-Vis spectrophotometer over a period of 200s. […] The reaction was started by adding 0.507 M H2O2 and mixing for 25 s.
as §1, §2, §3

Lysozyme from egg white = molecular target: T5, Lysozyme from egg white (Gallus gallus, UniProt P00698); assay: Lysozyme activity upon complexation with OEGCG and recovery with Triton X-100
T5 construct: Lysozyme from egg white, Sigma Chemical; purchased Sigma Chemical; host or cells: egg white
Protocol: Lysozyme from egg white, Sigma Chemical. Activity of lysozyme was determined spectrophotometically at 450 nm by the decrease in turbidity over time due to the cleavage of glucosidic linkages of Micrococcus lysodeikticus. […] To start the reaction, 0.25 mg/mL of Micrococcus lysodeikticus was added to the solution.
as §1, §2, §3

[6] = ABTS radical scavenging activity; conditions: dissociation (FIG. 27)
Protocol: Radical scavenging activity: ABTS^.+ was prepared by mixing a 7 mM ABTS stock solution with 2.45 mM potassium persulfate ((1/1, v/v). The decolorization reaction was initiated by adding ABTS^.+ to samples in a phosphate buffer and immediately measured at 734 nm using a UV-Vis spectrophotometer (Hitachi, Japan).

[7] = addition of TX-100 after complexation with OEGCG

T1 sequence (P80457 2-1332 limits assumed): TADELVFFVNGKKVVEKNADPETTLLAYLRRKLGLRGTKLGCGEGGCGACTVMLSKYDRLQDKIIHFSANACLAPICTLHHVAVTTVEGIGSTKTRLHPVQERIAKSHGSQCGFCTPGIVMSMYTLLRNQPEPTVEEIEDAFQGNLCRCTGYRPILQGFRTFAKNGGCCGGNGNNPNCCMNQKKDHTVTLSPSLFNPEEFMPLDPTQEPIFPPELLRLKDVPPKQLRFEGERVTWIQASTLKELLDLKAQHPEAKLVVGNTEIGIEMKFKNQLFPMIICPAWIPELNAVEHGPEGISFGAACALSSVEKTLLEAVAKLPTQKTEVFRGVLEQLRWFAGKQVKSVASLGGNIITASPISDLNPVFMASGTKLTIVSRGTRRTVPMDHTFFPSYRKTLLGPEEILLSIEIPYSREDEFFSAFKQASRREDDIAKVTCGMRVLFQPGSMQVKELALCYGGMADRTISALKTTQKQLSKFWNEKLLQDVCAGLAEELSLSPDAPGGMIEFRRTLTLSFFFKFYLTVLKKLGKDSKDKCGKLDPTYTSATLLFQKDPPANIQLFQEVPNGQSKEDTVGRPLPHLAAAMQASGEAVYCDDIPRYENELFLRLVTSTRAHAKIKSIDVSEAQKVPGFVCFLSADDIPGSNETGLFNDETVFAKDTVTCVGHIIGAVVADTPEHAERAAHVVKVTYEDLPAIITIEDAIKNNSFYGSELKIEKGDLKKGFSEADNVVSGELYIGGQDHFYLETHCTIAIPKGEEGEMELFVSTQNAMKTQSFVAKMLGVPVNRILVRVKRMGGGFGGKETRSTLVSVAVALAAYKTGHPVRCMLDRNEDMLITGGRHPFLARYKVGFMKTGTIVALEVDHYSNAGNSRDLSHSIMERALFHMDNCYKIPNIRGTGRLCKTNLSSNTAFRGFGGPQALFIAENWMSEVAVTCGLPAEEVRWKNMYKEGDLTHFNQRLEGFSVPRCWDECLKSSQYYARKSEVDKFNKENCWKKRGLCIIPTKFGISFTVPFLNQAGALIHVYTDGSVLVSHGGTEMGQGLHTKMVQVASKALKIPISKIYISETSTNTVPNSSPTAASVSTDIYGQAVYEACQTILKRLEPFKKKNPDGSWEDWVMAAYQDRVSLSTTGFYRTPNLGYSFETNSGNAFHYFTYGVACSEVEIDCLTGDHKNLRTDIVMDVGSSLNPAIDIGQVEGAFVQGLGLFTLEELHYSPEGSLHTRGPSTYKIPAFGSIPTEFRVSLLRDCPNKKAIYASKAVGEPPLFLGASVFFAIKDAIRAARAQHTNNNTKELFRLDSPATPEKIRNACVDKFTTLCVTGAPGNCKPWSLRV
T5 sequence (P00698 19-147): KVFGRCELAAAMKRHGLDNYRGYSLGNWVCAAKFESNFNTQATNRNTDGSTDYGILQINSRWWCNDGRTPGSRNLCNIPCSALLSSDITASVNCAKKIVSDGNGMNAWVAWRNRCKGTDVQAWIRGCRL
T2 sequence (P80457 whole entry): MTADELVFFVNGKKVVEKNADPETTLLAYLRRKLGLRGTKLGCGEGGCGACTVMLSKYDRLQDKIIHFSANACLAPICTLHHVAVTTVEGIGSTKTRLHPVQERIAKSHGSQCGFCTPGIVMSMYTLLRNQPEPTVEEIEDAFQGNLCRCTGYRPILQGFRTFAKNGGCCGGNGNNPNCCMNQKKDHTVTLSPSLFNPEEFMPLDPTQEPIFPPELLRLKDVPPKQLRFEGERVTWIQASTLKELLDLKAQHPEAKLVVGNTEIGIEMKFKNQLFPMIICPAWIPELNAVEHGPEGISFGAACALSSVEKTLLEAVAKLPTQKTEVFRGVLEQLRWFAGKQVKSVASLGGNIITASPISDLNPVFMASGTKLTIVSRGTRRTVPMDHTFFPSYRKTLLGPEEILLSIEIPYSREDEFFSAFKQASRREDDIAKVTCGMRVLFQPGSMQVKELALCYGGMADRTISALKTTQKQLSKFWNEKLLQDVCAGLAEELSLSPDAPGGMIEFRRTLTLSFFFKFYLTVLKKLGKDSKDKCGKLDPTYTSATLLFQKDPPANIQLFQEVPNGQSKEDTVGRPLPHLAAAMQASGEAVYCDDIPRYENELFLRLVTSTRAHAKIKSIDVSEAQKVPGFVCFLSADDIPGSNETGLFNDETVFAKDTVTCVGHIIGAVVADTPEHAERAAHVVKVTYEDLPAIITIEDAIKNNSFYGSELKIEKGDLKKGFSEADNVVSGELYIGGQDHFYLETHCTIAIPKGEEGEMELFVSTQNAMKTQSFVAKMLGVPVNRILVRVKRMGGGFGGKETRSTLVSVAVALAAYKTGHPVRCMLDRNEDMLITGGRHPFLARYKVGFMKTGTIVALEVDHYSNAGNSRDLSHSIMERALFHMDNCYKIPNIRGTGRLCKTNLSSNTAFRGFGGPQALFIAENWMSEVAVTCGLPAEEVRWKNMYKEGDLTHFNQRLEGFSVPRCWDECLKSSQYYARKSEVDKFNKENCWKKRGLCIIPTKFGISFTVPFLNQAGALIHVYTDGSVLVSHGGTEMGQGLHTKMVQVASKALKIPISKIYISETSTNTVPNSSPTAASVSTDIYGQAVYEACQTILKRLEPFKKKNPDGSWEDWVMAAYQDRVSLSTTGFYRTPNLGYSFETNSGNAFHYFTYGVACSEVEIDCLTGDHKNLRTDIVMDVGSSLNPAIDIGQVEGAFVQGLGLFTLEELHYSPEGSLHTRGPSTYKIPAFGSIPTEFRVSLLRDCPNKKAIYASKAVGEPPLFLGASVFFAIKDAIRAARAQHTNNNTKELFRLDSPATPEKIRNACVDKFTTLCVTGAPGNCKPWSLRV

Row | Compound | IC50 [1] [µM] | IC50 [2] [µM] | XO inhibition activity (Xanthine oxidase (XO)) [%] | uPA inhibition activity (Urokinase (uPA)) | also measured
1 | oligomeric epigallocatechin gallate [OEGCG] | 4.9 ± 0.5 | 1.1 ± 0.2 | 89.3 | higher inhibition activities | suppression of total XO activity [3]: 75%; maximum inhibition of α-amylase [4]: about 94%; initial α-amylase activity inhibition ([4]; OEGCG below a ratio of one): 70%; α-amylase activity restored, % of the initial protein activity [4, 7]: approximately 100%; decrease in α-amylase activity ([4]; five fold increase in OEGCG concentration from a ratio of 1 to 5): 20%; further decrease of catalase activity ([5]; five fold increase in OEGCG concentration beyond OEGCG to protein ratio of 1): about 6%; inhibition of catalase ([5]; highest OEGCG to protein ratio): 30%; inhibition of lysozyme (Lysozyme from egg white; above an OEGCG ratio of 2): All activity was suppressed; lysozyme activity restored, % of the initial protein activity (Lysozyme from egg white; [7]): approximately 100%; ABTS radical scavenging activity upon complexation with proteins and dissociation [6]: suppressed by complexation with proteins was restored upon dissociation
2 | O=C1O[C@H]([C@@H](O)CO)C(O)=C1O [Vitamin C, reference compound] | 44.7 ± 0.4 | 30.3 ± 0.3 | – | – | –
3 | Cc1cc(C(C)(C)C)c(O)c(C(C)(C)C)c1 [BHT, dibutylhydroxytoluen, reference compound] | > 250 | > 250 | – | – | –
4 | PEG-epigallocatechin gallate conjugate [PEG-EGCG] | 6.2 ± 0.3 | 0.9 ± 0.1 | 30.7 | higher inhibition activities | –
5 | (−)-Epigallocatechin gallate [EGCG, reference compound] | 7.3 ± 0.6 | 2.9 ± 0.3 | 1.2 | very low uPA inhibition activity | XO inhibition (Xanthine oxidase (XO); over the range of concentrations tested): less than 5%
6 | PEG-oligomeric epigallocatechin gallate [PEG-OEGCG] | 3.8 ± 0.8 | 0.4 ± 0.1 | 100 | higher inhibition activities | –
7 | Oc1ncnc2[nH]ncc12 [allopurinol, reference compound] | – | – | – | – | inhibition at 10 µM (Xanthine oxidase (XO); read-out: XO inhibition activity): 22.6%
